Test results as given in PubChem BioAssay (NCI).
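Values below derive from 48-hour exposures of cells grown in 96-well plates, with endpoints linearly interpolated between the two concentrations bracketing the appropriate inhibition level. Definition used: TGI = concentration required for complete inhibition of growth.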

Tests used:
Assay in all cases: NCI anticancer screen, dose series, 48 h
CCRF-CEM leukemia = tested on: CCRF-CEM leukemia
HT29 colon = tested on: HT29 colon
MALME-3M melanoma = tested on: MALME-3M melanoma
MDA-MB-231 breast = tested on: MDA-MB-231 breast
MOLT-4 leukemia = tested on: MOLT-4 leukemia
NCI-H522 lung = tested on: NCI-H522 lung
SK-MEL-2 melanoma = tested on: SK-MEL-2 melanoma
SNB-75 CNS = tested on: SNB-75 CNS
SR leukemia = tested on: SR leukemia
TK-10 renal = tested on: TK-10 renal

Row | Structure (SMILES) | TGI (CCRF-CEM leukemia) | TGI (HT29 colon) | TGI (MALME-3M melanoma) | TGI (MDA-MB-231 breast) | TGI (MOLT-4 leukemia) | TGI (NCI-H522 lung) | TGI (SK-MEL-2 melanoma) | TGI (SNB-75 CNS) | TGI (SR leukemia) | TGI (TK-10 renal)
1 | O=C1CCC2(CC1CCSc1ccccc1)OCCO2 (stereo not drawn) | > 100 µM | > 100 µM | > 100 µM | > 100 µM | > 100 µM | > 100 µM | > 100 µM | > 100 µM | > 100 µM | > 100 µM
2 | COCN1CCN=c2c1c1c3c(c4ccccc4n23)CCC1 | > 100 µM | > 100 µM | > 100 µM | > 100 µM | > 100 µM | > 100 µM | > 100 µM | > 100 µM | > 100 µM | > 100 µM
3 | Cc1cn(CC2=NCCCN2)c(=O)[nH]c1=O | > 100 µM | > 100 µM | > 100 µM | > 100 µM | > 100 µM | > 100 µM | > 100 µM | > 100 µM | > 100 µM | > 100 µM
4 | Cc1cc2ccccc2n1CC(=O)N1CCCC1 | > 100 µM | > 100 µM | > 100 µM | > 100 µM | > 100 µM | > 100 µM | > 100 µM | > 100 µM | > 100 µM | > 100 µM
5 | O=c1[nH]c2cc3cccnc3c(Cl)c2nc1C(F)(F)F | 98.2 µM | > 100 µM | > 100 µM | > 100 µM | 83.2 µM | > 100 µM | > 100 µM | 90.1 µM | > 100 µM | > 100 µM
6 | Cc1cc(Nc2ccc(N=Nc3ccc(O)c4ncccc34)cc2)nc(C)n1 | 7.22 µM | > 75.2 µM | 44.6 µM | 73.7 µM | 48.3 µM | 55 µM | 34.4 µM | 43.6 µM | > 100 µM | 50.2 µM
7 | CC(C)(C)n1c(=O)n(C(=O)C(Cl)(Cl)Cl)n(C(=O)C(Cl)(Cl)Cl)c1=O | > 100 µM | > 100 µM | > 100 µM | > 100 µM | > 100 µM | > 100 µM | > 100 µM | – | > 100 µM | > 100 µM
8 | COc1ccc(C(=C(I)c2ccccc2)c2ccc(OC)cc2)cc1 | > 100 µM | > 100 µM | > 100 µM | > 100 µM | > 100 µM | > 100 µM | > 100 µM | – | > 100 µM | > 100 µM
9 | CCOC(=O)C1=C(C)C(C(=O)OC)/C(=C/c2cccc3cccnc23)C1=O (stereo not drawn) | > 10 µM | > 10 µM | > 10 µM | > 10 µM | > 10 µM | > 10 µM | > 10 µM | > 10 µM | > 10 µM | > 10 µM
10 | CC(C)[C@H]1NC(=O)[C@H]2N=C(O[C@@H]2C)[C@@H]2CCCN2C(=O)[C@H](Cc2ccccc2)NC(=O)[C@@H]2CSC(=N2)[C@@H](Cc2ccccc2)NC(=O)[C@@H]2CSC1=N2 | > 100 µM | > 100 µM | > 100 µM | > 100 µM | > 100 µM | > 100 µM | > 100 µM | – | > 100 µM | > 100 µM
11 | CC1CC[C@@]2(OC1)O[C@H]1C[C@H]3[C@@H]4CC[C@H]5C[C@@H](OC6OC(CO)C(OC7OC(CO)C(OC8OC(CO)C(O)C(OC9OC(C)C(OC%10OC(C)C(O)C(O)C%10O)C(O)C9O)C8OC8OCC(O)C(O)C8O)C(O)C7O)C(O)C6O)CC[C@]5(C)[C@H]4CC(=O)[C@]3(C)[C@H]1[C@@H]2C (stereo partly drawn) | 29.2 µM | > 100 µM | 41.3 µM | 30.1 µM | 34.6 µM | 42.4 µM | 30 µM | 36.5 µM | 30.3 µM | 31.5 µM
12 | OCC(Cn1cncn1)(c1ccc(F)cc1F)n1cncn1 (stereo not drawn) | > 100 µM | > 100 µM | > 100 µM | > 100 µM | > 100 µM | > 100 µM | > 100 µM | > 100 µM | > 100 µM | > 100 µM
13 | Cc1ccc(C)c(COCCOCn2cc(Br)c(N)nc2=O)c1 | > 100 µM | – | > 100 µM | > 100 µM | > 100 µM | > 100 µM | > 100 µM | > 100 µM | > 100 µM | > 100 µM
14 | Nc1ccc(-c2nc3cc(F)ccc3s2)cc1I | > 100 µM | > 100 µM | 72.9 µM | 30.4 µM | > 100 µM | 33.2 µM | 50.6 µM | 33.8 µM | > 59.5 µM | 21.1 µM
15 | N#Cc1c(N2CCCC2)ncn(Cc2ccccc2)c1=S | > 100 µM | > 100 µM | > 100 µM | > 100 µM | > 100 µM | > 100 µM | > 100 µM | > 95.2 µM | > 100 µM | > 100 µM
16 | C=CC(C)(C)N[C@@H](C(=O)N1CCC[C@H]1c1nc(-c2nc(C(=O)OCC=C(C)C)c(C)o2)c(C)o1)C(C)C | 41.8 µM | 46.1 µM | 39 µM | 51.3 µM | 36.9 µM | 35.6 µM | 73.5 µM | > 100 µM | 40.6 µM | 63.2 µM
17 | Cc1nccn1S(=O)(=O)c1ccc(Br)cc1Br | 98.3 µM | > 100 µM | > 100 µM | 48.5 µM | 96.1 µM | 86.9 µM | 55 µM | 57.9 µM | 78.3 µM | > 100 µM

Row | Structure (SMILES) | TGI (CCRF-CEM leukemia) | TGI (HT29 colon) | TGI (MALME-3M melanoma) | TGI (MDA-MB-231 breast) | TGI (MOLT-4 leukemia) | TGI (NCI-H522 lung) | TGI (SK-MEL-2 melanoma) | TGI (SNB-75 CNS) | TGI (SR leukemia) | TGI (TK-10 renal)
18 | COC(=O)/C=C\C(C#N)(C#N)N=Cc1ccc(C)s1 | 1.64 µM | – | 3.09 µM | 18.3 µM | 5.82 µM | 2.01 µM | 20.5 µM | 19.9 µM | 8.17 µM | 3.8 µM
19 | O=c1[nH]c2ccccc2nc1/C=C(\O)C(F)F | > 100 µM | > 100 µM | > 100 µM | > 100 µM | > 100 µM | > 100 µM | > 100 µM | – | > 100 µM | > 100 µM
20 | COC(=O)c1ccc(CCc2cc(O)ccc2O)cc1 | > 26.8 µM | > 79.9 µM | 22.5 µM | 29.9 µM | 15.3 µM | 2.16 µM | 55.6 µM | 21.2 µM | > 21 µM | 45.8 µM
21 | O=c1c2ccccc2n2nnc3ccc(NCCCNCCNCCCNc4ccc5nnn6c7ccccc7c(=O)c4c56)c1c32 | > 50 µM | 1.52 µM | > 50 µM | 7.37 µM | > 21.2 µM | 9.84 µM | > 50 µM | > 27.2 µM | > 50 µM | 19 µM
22 | Cn1c(-c2ccc[se]2)ccc1-c1ccc(CO)[se]1 | > 100 µM | – | 40.4 µM | > 88.2 µM | 98.2 µM | > 100 µM | > 100 µM | > 79.9 µM | 53.5 µM | –
23 | COc1cc(/C=C2\N=C(c3ccccc3)N(/N=C3\C(=O)Nc4ccccc43)C2=O)cc(OC)c1OC | > 100 µM | > 100 µM | > 100 µM | > 100 µM | > 100 µM | > 100 µM | > 100 µM | > 100 µM | > 100 µM | > 100 µM
24 | CC(NC1=NCCO1)c1cccc([N+](=O)[O-])c1 (stereo not drawn) | > 100 µM | > 100 µM | > 100 µM | > 100 µM | > 100 µM | > 100 µM | > 100 µM | > 100 µM | > 100 µM | > 100 µM
25 | N#CC(C#N)=Cc1c(O)ccc2ccccc12 | 5.17 µM | 41.1 µM | 39.8 µM | 30.4 µM | – | 29.2 µM | 37.8 µM | 17.9 µM | 13.6 µM | 32.2 µM
26 | O=C1C=C2CO[C@H]3OC[C@H](O)[C@@H]1[C@@H]23 | 66.8 µM | > 100 µM | 55 µM | > 100 µM | > 100 µM | 33.1 µM | 37.3 µM | > 100 µM | 63.1 µM | > 100 µM
27 | Cc1ccc(-n2c(O)c3c(N)n[nH]c3c(C#N)c2=O)cc1 | > 100 µM | > 100 µM | > 100 µM | > 100 µM | > 100 µM | > 100 µM | > 100 µM | > 100 µM | > 100 µM | > 100 µM
28 | Cc1cc(NS(=O)(=O)c2ccc(NC(=O)c3cccc4c(NNc5ccc(S(=O)(=O)N=C(N)N)cc5)c5ccccc5nc34)cc2)no1 | 82.3 µM | 92.6 µM | > 100 µM | > 100 µM | 74.9 µM | 96.6 µM | 64.2 µM | 88.3 µM | > 100 µM | > 100 µM
29 | COc1ccc(-c2nc(-c3cc4ccccc4oc3=O)cs2)cc1 | > 100 µM | > 100 µM | > 100 µM | 53.8 µM | > 100 µM | > 100 µM | > 100 µM | > 100 µM | > 100 µM | > 100 µM
30 | C=C1C(=O)O[C@H]2C/C(C)=C/CC/C(C)=C/CC[C@@](C)(O)[C@@H](I)C[C@@H]12 | 5.4 µM | 26.8 µM | 22.3 µM | 26.9 µM | > 26.2 µM | 14.4 µM | 25.8 µM | 25.1 µM | 11.8 µM | 23.6 µM
31 | NS(=O)(=O)c1ccc(Nc2c3ccccc3nc3c(C(=O)NCCCN(CCO)CCO)cccc23)cc1 | 58.6 µM | 77 µM | 42 µM | > 100 µM | 99 µM | 44.1 µM | 58.9 µM | – | 40.6 µM | > 100 µM
32 | O=C(OCCN1CCCCC1)C(c1ccccc1)C1(O)CCSCC1 (stereo not drawn) | > 100 µM | > 100 µM | > 100 µM | > 100 µM | > 100 µM | > 100 µM | > 100 µM | > 100 µM | > 100 µM | > 100 µM
33 | CCN(CC)C(=S)N/N=C/c1ccccn1 | > 100 µM | > 100 µM | > 100 µM | > 100 µM | > 100 µM | 1.53 µM | > 100 µM | 44.8 µM | > 54.8 µM | –
34 | COc1ccc(Oc2nc3ccc(C(F)(F)F)cc3nc2-c2ccccc2)cc1 | > 100 µM | > 100 µM | > 100 µM | > 100 µM | > 100 µM | > 100 µM | > 100 µM | – | > 100 µM | > 100 µM
